Experimental data taken from US20250197343A1, “CATIONIC LIPID” (TAKEDA PHARMACEUTICAL COMPANY LIMITED, priority 2021, published 2025).
Where two headings read alike, the source gives them in different places.

How the values were obtained:
[1] = Particle size of Luc DNA-encapsulated lipid nanoparticles; format: physicochemical; conditions: cationic lipid:DPPC:cholesterol:GM-020=60:10.6:28:1.4 molar ratio
How it was run: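 LNPs of cationic lipid:DPPC:cholesterol:GM-020 (60:10.6:28:1.4 molar) encapsulating luciferase DNA, made by microfluidic mixing with DNA in 10 mM MES pH 5.5, dialysed into PBS, stored in 20% sucrose/PBS at −80 °C. Size by dynamic light scattering, reported as cumulant Z-average.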

[2] = Rate of encapsulation of Luc DNA in lipid nanoparticles; format: physicochemical; set-up: unit: %; conditions: Luc DNA-encapsulated lipid nanoparticles; cationic lipid:DPPC:cholesterol:GM-020=60:10.6:28:1.4 molar ratio
How it was run: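 Luc DNA-LNPs (cationic lipid:DPPC:cholesterol:GM-020 = 60:10.6:28:1.4 molar) formed by microfluidic mixing with DNA in 10 mM MES pH 5.5, then dialyzed into PBS. RiboGreen fluorescence measured with and without Triton X-100; encapsulation rate is the encapsulated fraction of total nucleic acid.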

[3] = system: ICrl:CD1 (ICR) mice; experiment: Mouse bioluminescence imaging evaluation (Test Example 1); format: in vivo; conditions: Luc DNA-encapsulated lipid nanoparticles 10 mL/kg i.v. to ICR mice; IVIS total flux 15 minutes after luciferin i.p.
How it was run: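 ICR mice received Luc DNA-encapsulated lipid nanoparticles i.v. (10 mL/kg), then luciferin 15 mg/mL i.p. (10 mL/kg). Ventral IVIS imaging under isoflurane 15 min after luciferin; total flux scored A (≥3.0E+07), B (1.0E+07 to <3.0E+07), C (<1.0E+07).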

[4] = system: Huh-7 cells; experiment: Evaluation of viability using Huh-7 cells (Test Example 2); format: cell-based
Procedure: Huh-7 cells were seeded in a 96-well plate, and PBS, the Luc DNA-encapsulated lipid nanoparticles obtained in the aforesaid Production Example by using the cationic lipids of the Examples shown in Table 3, or Luc DNA-encapsulated lipid nanoparticles for control which were obtained in the same manner as in the aforesaid Production Example except that a known lipid, MC3 (DLin-MC3-DMA) or ALC-0315, was used instead of the cationic lipids of the Examples were added thereto (final concentration: 0.1 μg/mL and 0.3 μg/mL), followed by evaluation of viability (CellTiter-Fluor Cell Viability Assay, Promega Corporation). Taking the viability of dead cell group as 0% and the viability of the PBS group as 100%, the viability of each of the lipid particle groups was calculated. Higher viability indicates higher safety of the lipid particles. When the cationic lipids of the Examples were used, an improvement in safety compared to the control groups of MC3 and ALC-0315 was observed.

[5] = Huh-7 cells, Luc DNA-encapsulated lipid nanoparticles, final concentration 0.1 μg/mL, PBS group = 100%, dead cell group = 0%
[6] = Huh-7 cells, Luc DNA-encapsulated lipid nanoparticles, final concentration 0.3 μg/mL, PBS group = 100%, dead cell group = 0%

Row | Structure (SMILES) | Particle size (nm) [1] | Rate of encapsulation [2] | Luminescence [3] | Viability 0.1 μg/ml (%) [4, 5] | Viability 0.3 μg/ml (%) [4, 6] | Viability 0.1 μg/ml (%) [4] | Viability 0.3 μg/ml (%) [4]
1 | CCCCCCCCCOC(=O)CCCCC(=O)OCC(COC(=O)CCCCC(=O)OCCCCCCCCC)(COC(=O)CCCCC(=O)OCCCCCCCCC)COC(=O)CCCN(C)C [Example 41, 1,1′-[2-({[4-(Dimethylamino)butanoyl]oxy}methyl)-2-({[6-(nonyloxy)-6-oxohexanoyl]oxy}methyl)propane-1,3-diyl] 6,6′-dinonyl dihexanedioate] | 138.0 nm | 80.3 | B (B represents luminescence of 1.0E+0.7 or more and less than 3.0E+07) | 111% | 101% |  | 
2 | CCCCCCCOC(=O)CCCCC(=O)OCC(COC(=O)CCCCC(=O)OCCCCCCC)(COC(=O)CCCN(C)C)COC(=O)CC(CCC)CCCCCCC (centres unmarked) [Example 28, 1,1′-[2-({[4-(Dimethylamino)butanoyl]oxy}methyl)-2-{[(3-propyldecanoyl)oxy]methyl}propane-1,3-diyl] 6,6′-diheptyl dihexanedioate] | 137.3 nm | 94.9 | A (A represents luminescence of 3.0E+07 or more) | 113% | 110% |  | 
3 | CCCCCCCCCCOC(=O)CCCCC(=O)OCC(COC(=O)CCCCC(=O)OCCCCCCCCCC)(COC(=O)CCCN(C)C)COC(=O)CC(CCCCC)CCCCC [Example 45, 1,1′-Didecyl 6,6′-[2-({[4-(dimethylamino)butanoyl]oxy}methyl)-2-{[(3-pentyloctanoyl)oxy]methyl}propane-1,3-diyl] dihexanedioate] | 119.0 nm | 95.6 | A (A represents luminescence of 3.0E+07 or more) | 108% | 103% |  | 
4 | CCCCCCCOC(=O)CCCCC(=O)OCC(COC(=O)CCCCC(=O)OCCCCCCC)(COC(=O)CCCN(C)C)COC(=O)CC(CCCCC)CCCCC [Example 13, 1,1′-[2-({[4-(Dimethylamino)butanoyl]oxy}methyl)-2-{[(3-pentyloctanoyl)oxy]methyl}propane-1,3-diyl] 6,6′-diheptyl dihexanedioate] | 136.5 nm | 96.3 | A (A represents luminescence of 3.0E+07 or more) | 112% | 105% |  | 
5 | CCCCCC(CCCCC)COC(=O)CCC(=O)OCC(COC(=O)CCCN(C)C)(COC(=O)CCC(=O)OCC(CCCCC)CCCCC)COC(=O)CCC(=O)OCC(CCCCC)CCCCC [Example 37, 1,1′-{2-({[4-(Dimethylamino)butanoyl]oxy}methyl)-2-[({4-oxo-4-[(2-pentylheptyl)oxy]butanoyl}oxy)methyl]propane-1,3-diyl} 4,4′-bis(2-pentylheptyl) dibutanedioate] | 124.1 nm | 97.0 | A (A represents luminescence of 3.0E+07 or more) | 111% | 98% |  | 
6 | CCCCCCCCCCOC(=O)CCCCC(=O)OCC(COC(=O)CCCN(C)C)(COC(=O)CC(CCCCC)CCCCC)COC(=O)CC(CCCCC)CCCCC [Example 51, Decyl 2-({[4-(dimethylamino)butanoyl]oxy}methyl)-3-[(3-pentyloctanoyl)oxy]-2-{[(3-pentyloctanoyl)oxy]methyl}propyl hexanedioate] | 83.9 nm | 98.2 | B (B represents luminescence of 1.0E+0.7 or more and less than 3.0E+07) | 104% | 78% |  | 
7 | CCCCCCCOC(=O)CCCCC(=O)OCC(COC(=O)CCCCC(=O)OCCCCCCC)(COC(=O)CCCN(C)CCO)COC(=O)CC(CCCCC)CCCCC [Example 93, 1,1′-Diheptyl 6,6′-(2-[({4-[(2-hydroxyethyl)(methyl)amino]butanoyl}oxy)methyl]-2-{[(3-pentyloctanoyl)oxy]methyl}propane-1,3-diyl) dihexanedioate] | 145.6 nm | 94.8 | B (B represents luminescence of 1.0E+0.7 or more and less than 3.0E+07) | 105% | 101% |  | 
8 | CCCCCCCOC(=O)CCCCC(=O)OCC(COC(=O)CCCCN(C)C)(COC(=O)CC(CCCCC)CCCCC)COC(=O)CC(CCCCC)CCCCC [Example 18, 2-({[5-(Dimethylamino)pentanoyl]oxy}methyl)-3-[(3-pentyloctanoyl)oxy]-2-{[(3-pentyloctanoyl)oxy]methyl}propyl heptyl hexanedioate] | 138.9 nm | 96.6 | A (A represents luminescence of 3.0E+07 or more) | 110% | 106% |  | 
9 | CCCCCC(CCCCC)CC(=O)OCC(COC(=O)CCCCC(=O)OCC(CCC)CCC)(COC(=O)CCCCC(=O)OCC(CCC)CCC)COC(=O)CCCN(C)C [Example 115, 1,1′-[2-({[4-(Dimethylamino)butanoyl]oxy}methyl)-2-{[(3-pentyloctanoyl)oxy]methyl}propane-1,3-diyl] 6,6′-bis(2-propylpentyl) dihexanedioate] | 109.6 nm | 95.7 | A (A represents luminescence of 3.0E+07 or more) | 110% | 100% |  | 
10 | CCCCC/C=C\C/C=C\CCCCCCCCC(CCCCCCCC/C=C\C/C=C\CCCCC)OC(=O)CCCN(C)C [MC3, reference compound] |  |  |  | 97% | 49% |  | 
11 | CCCCCCCCC(C(=O)OC)C(=O)OCC(COC(=O)CCCN(C)C)(COC(=O)CC(CCCCC)CCCCC)COC(=O)C(CCCCCCCC)C(=O)OC (centres unmarked) [Example 132, 1,1′-[2-({[4-(Dimethylamino)butanoyl]oxy}methyl)-2-{[(3-pentyloctanoyl)oxy]methyl}propane-1,3-diyl] 3,3′-dimethyl bis(octylpropanedioate)] | 129.2 nm | 96.5 | A (A represents luminescence of 3.0E+07 or more) | 95% | 94% |  | 
12 | CCCCCC(CCCCC)OC(=O)CCC(=O)OCC(COC(=O)CCCN(C)C)(COC(=O)CCC(=O)OC(CCCCC)CCCCC)COC(=O)CCC(=O)OC(CCCCC)CCCCC [Example 39, 1,1′-{2-({[4-(Dimethylamino)butanoyl]oxy}methyl)-2-[({4-oxo-4-[(undecan-6-yl)oxy]butanoyl}oxy)methyl]propane-1,3-diyl} 4,4′-diundecan-6-yl dibutanedioate] | 135.2 nm | 98.5 | B (B represents luminescence of 1.0E+0.7 or more and less than 3.0E+07) |  |  | 113% | 94%
13 | CCCCCCOC(=O)CCCCCC(=O)OCC(COC(=O)CCCCCC(=O)OCCCCCC)(COC(=O)CCCN(C)C)COC(=O)CC(CCCCC)CCCCC [Example 99, 1,1′-[2-({[4-(Dimethylamino)butanoyl]oxy}methyl)-2-{[(3-pentyloctanoyl)oxy]methyl}propane-1,3-diyl] 7,7′-dihexyl diheptanedioate] | 153.8 nm | 92.4 | A (A represents luminescence of 3.0E+07 or more) |  |  |  | 
14 | CCCCCCCCC(CCCCCC)C(=O)OCCCCCCN(CCCCO)CCCCCCOC(=O)C(CCCCCC)CCCCCCCC (centres unmarked) [ALC-0315, reference compound] |  |  |  | 89% | 68% |  | 
15 | CCCCCC(CCCCC)CC(=O)OCC(COC(=O)CCCCCCCC(=O)OCCCC)(COC(=O)CCCCCCCC(=O)OCCCC)COC(=O)CCCN(C)C [Example 33, 1,1′-Dibutyl 9,9′-[2-({[4-(dimethylamino)butanoyl]oxy}methyl)-2-{[(3-pentyloctanoyl)oxy]methyl}propane-1,3-diyl] dinonanedioate] | 145.7 nm | 89.9 | B (B represents luminescence of 1.0E+0.7 or more and less than 3.0E+07) |  |  |  | 
